Experimental data reported in US20250049676A1, “ANTIMICROBIAL SYSTEM WITH INDOLE ALKALOID AND PHENOLIC ACID AND COMPOSITIONS COMPRISING THEM” (Conopco, Inc., d/b/a UNILEVER, priority 2021, published 2025).
Read-outs that look alike come from different tables or passages of the source.

How the values were obtained:
[1] = tested on: Aspergillus brasiliensis ATCC 16404; experiment: Liquid broth assay (MIC and checkerboard), Aspergillus brasiliensis; type: cell-based; conditions: for MIC: Aspergillus brasiliensis; for concentration needed in combination to achieve the inhibitory effect: gramine with syringic acid, concentration of the named component in the mixture
From the text: (§1) Naturally derived antimicrobial systems were made, as shown below by combining the indole alkaloid and phenolic acid. Two pools were set up and each pool contained 1 organism. The strains involved were Enterobacter gergoviae ATCC 33028 of the family Pluralibacter gergoviae, a Gram-negative and Aspergillus brasiliensis ATCC 16404. FIC test range was 16 times greater than the projected MIC for each sample.
(§2) The differing behaviors of inhibitory antimicrobials in isolation and mixtures have been widely explored using the concept of the Fractional Concentration and Fractional Inhibitory Concentration (FIC). See for instance JRW Lambert and R Lambert, J. Appl. Microbiol 95, 734 (2003); T. Jadavji, CG Prober and R Cheung, Antibacterial Agents and Chemotherapy 26, 91 (1984), and WO 2004/006876. MIC is the minimum inhibitory concentration a component prevents visible growth of a microbe. The FC and FIC parameters can be defined as follows:
(§3) FC (Component A)=Concentration of Component A tested in the mixture/MIC (Component A tested as a single active)
(§4) FIC (component a)=MIC (component a tested in the mixture)/MIC (component a tested as a single active)
(§5) The interactions between antimicrobials can be additive, synergistic or possibly antagonistic depending on whether the efficacy of the combination is equivalent to, greater than or less than that obtained for the same total concentration of the individual components when tested alone. These relationships can be expressed mathematically by summing the fractional MIC values for all the components present in the mixture to give the “fractional inhibitory index”:
(§6) Such that: • ΣFIC greater than 0.5 corresponds to indifferent, additive or antagonistic activity • ΣFIC less than or equal to 0.5 corresponds to synergistic activity
(§7) Liquid broth assays (MIC and checkerboard) were conducted to identify the minimum concentration(s) of individual and binary combinations of natural preservation materials. A modified methodology to ISO 20776-1:2006 was utilized for the screening as follows. Stock solutions of each preservation chemical at 200 ul/cell (or well) each and 100 ul of broth were created in separate 96-well plates. Each of the two-preservation chemical/broth mixes was then combined in a third 96 well plate at varying concentrations and then inoculated with 1-5×10^6 microorganisms and incubated at 30° C. for 24 hours, after which optical densities at OD600 nm were measured.

[2] = tested on: Enterobacter gergoviae ATCC 33028; experiment: Liquid broth assay (MIC and checkerboard), Enterobacter gergoviae; type: cell-based; conditions: for MIC: Pluralibacter gergoviae, read-out: minimal inhibitory concentration (MIC); for concentration needed in combination to achieve the inhibitory effect: gramine with syringic acid, concentration of the named component in the mixture
From the text: as §1, §2, §3, §4, §5, §6, §7

| Compound | MIC ([1]; ATCC16404, component by itself, MIC = <25% growth vs positive control, 30° C., 24 hours, OD600, read-out: MIC) | concentration needed in combination to achieve the inhibitory effect [1] | MIC ([2]; ATCC33028, component by itself, MIC = <25% growth vs positive control, 30° C., 24 hours, OD600) | concentration needed in combination to achieve the inhibitory effect [2] | MIC ([1]; ATCC16404, 24 h) | MIC ([2]; ATCC33028, 24 h) |
| --- | --- | --- | --- | --- | --- | --- |
| CN(C)Cc1c[nH]c2ccccc12 [Gramine, 1-(1H-Indol-3-yl)-N,N-dimethylmethanamine] | 12.5 mg/mL | 1,563 mg/ml | 6.25 mg/mL | 0.098 mg/mL | – | – |
| COc1cc(C(=O)O)cc(OC)c1O [Syringic Acid, 4-Hydroxy-3,5-dimethoxybenzoic acid] | – | 6.25 mg/mL | – | 0.781 mg/mL | > 50 mg/mL | > 50 mg/mL |
